Consider 2 compounds from patent US7414078B2, “Oral general anesthetics and metabolitically resistant anticonvulsants” (University of Virginia Patent Foundation, priority 2001, dated 2008).

Series [1] deals with Isoflurane anesthesia (minimum alveolar concentration, MAC). As to the kind of experiment: General anesthesia test: reduction of isoflurane MAC after i.p. compound. It is filed as in vivo, rats. As to the method:
The MAC value is the minimum alveolar concentration of anesthetic at 1 atm that produces immobility in 50% of the subjects.
200 mg of each compound are tested for general anesthesia activity Testing is performed on rats to determine the percent reduction in the use of isoflurane. Inhaled anesthetics still need to be utilized to rapidly adjust the level of anesthesia. Since no single anesthetic is capable of all four requirements for anesthesia, a combination is utilized. The rats were first anesthetized with isoflurane, intubated, ventilated and then a femoral line was inserted. After the rat had been stable for 15 minutes, the initial minimum alveolar concentration (MAC) value was determined. […] After 30 minutes the second MAC value was determined post administration. Finally, after one hour the third MAC value was determined. At each MAC determination, a sample of blood was taken to determine pH, pCO2, and pO2. The results of the compounds tested to date are compared to the lead compound 17.
A classical comparison of log P and MAC reduction was investigated. A graph representing the effects of log P on the biological activity is presented in graphic form (See FIG. 1). The general anesthetic activity of compounds 20-23 and 36-43 were compared to lead compound 17 as represented in the graph (FIG. 1) and in Table 1. The partition coefficient, P, is a measure of the way the compound distributes itself between octanol and water. […] Therefore, meta-substituted derivatives 20 will be the focus of future synthesize. Bulky substituents on the alcohol were also found to have low activity.

For series [2], the system named is blood pressure / hemodynamics. The experiment in a line: Hemodynamic effects during isoflurane anesthesia. It is filed as in vivo, rats. The note with it: rat, in vivo. As to the method:
200 mg of each compound are tested for general anesthesia activity Testing is performed on rats to determine the percent reduction in the use of isoflurane. Inhaled anesthetics still need to be utilized to rapidly adjust the level of anesthesia. Since no single anesthetic is capable of all four requirements for anesthesia, a combination is utilized. The rats were first anesthetized with isoflurane, intubated, ventilated and then a femoral line was inserted. After the rat had been stable for 15 minutes, the initial minimum alveolar concentration (MAC) value was determined. Then, 60 mg/kg of drug was sonicated in 3 mL of peanut oil and injected (i.p.). After 30 minutes the second MAC value was determined post administration. Finally, after one hour the third MAC value was determined. At each MAC determination, a sample of blood was taken to determine pH, pCO2, and pO2. The results of the compounds tested to date are compared to the lead compound 17.

Another series relates to rats. The experiment in a line: Anticonvulsant testing of compound 17 in rats (oral ED50, toxicity, surgical anesthesia). Type of series: in vivo. An excerpt:
In addition increased halogen size and saturation at the position 3 carbon also increase anesthetic activity. A hydrogen bond donor is also important at the position 2 carbon, but bulk is not well tolerated.

For the next series, the system named is seizures. The note with it: cited from earlier work; for anticonvulsant activity: tested in the 1950's.
For the next series, the system named is blood dyscrasias, rash. The note with it: 1950's findings; cited from earlier work.

Structures are written as SMILES. Where two headings read alike, the source gives them in different places.

In general, ED50 refers to the dose at which the effect has come halfway, by size or by number of responders. In the case of `NC(=O)C(O)(c1ccccc1)C(F)(F)F` (stereo not shown) [Compound 17, 3,3,3-Trifluoro-2-hydroxy-2-phenyl-propionamide], the “lowering of minimum alveolar concentration (MAC) value of isoflurane” value in series [1] (isoflurane 1.2% in O2, dose not stated) is recorded as “sixty”. Also, the “MAC value of Isoflurane at 60 mg/kg of compound” value in series [1] (rats, 60 mg/kg i.p. in peanut oil, 1.2% isoflurane generates 100% anesthesia) worked out at 0.65%. Further, the “Percent Reduction in Isoflurane” value in series [1] (rats, 60 mg/kg i.p., relative to 1.2% isoflurane) turned out to be 46%. Moreover, the “Hemodynamic Effects” value in series [2] was “no hemodynamic effects”; in series [2] (ip, 60 mg/kg) it was “none”. The ED50 with rats (Rattus norvegicus, rats, oral, read-out: anesthetic activity, oral ED50) stood at 9 mg/kg. Also, the toxicity at dose with rats (rats, oral) stood at 300 mg/kg. In the series on rats (third stage: general loss of spinal reflexes and muscle tone), the “stage of anesthesia exhibited by animals” value is “surgical anesthesia”.
Turning to `CC(O)(C(N)=O)c1ccccc1` (racemic) [Themisone, α-hydroxy-α-methylbenzeneacetamide], the “anesthetic activity” value in series [1] (rat, in vivo) is “no anesthetic activity”. The “mice protected against seizures” value in the series on seizures (racemic mixture, 250 mg/kg) is on record as 4 out of 4. The “anticonvulsant activity” value was “very potent anticonvulsant” with seizures and “anticonvulsant activity” in the series with seizures (listed as atrolactamide (themisone)). Also, the “toxicity” value with blood dyscrasias, rash is on record as “toxic (blood dyscrasias, rash)”.
